In patent US6916802B2, “Amino ceramide-like compounds and therapeutic methods of use” (Genzyme Corporation, priority 2002, dated 2005):
Marks after values point to notes of the source that are not given here.

Tests used:
[1] = tested on: GlcCer synthase of MDCK cell homogenates; experiment: Inhibition of ceramide glucosyltransferase (GlcCer synthase) of MDCK cell homogenates; type: biochemical, canine; settings: for % Inhibition at 80 μM: 80 μM inhibitor
Experimental: Assay of sphingolipid enzymes. The inhibitors were evaluated for their effectiveness against the GlcCer synthase of MDCK cell homogenates by incubation in a thermostatted ultrasonic bath (Radin N. S. et al., “Ultrasonic Baths as Substitutes for Shaking Incubator Baths,” Enzyme, 45:67-70 (1991)) with octanoyl sphingosine and uridinediphospho[^3H]glucose (Shukla, G. S. et al., “Glucosylceramide Synthase of Mouse Kidney: Further Characterization and Improved Assay Method,” Arch. Biochem. Biophys., 283:372-378 (1990)). The lipoidal substrate (85 μg) was added in liposomes made from 0.57 mg dioleoylphosphatidylcholine and 0.1 mg of Na sulfatide. Confluent cells were washed, then homogenized with a micro-tip sonicator at 0° C. for 3×30 sec; ˜0.2 mg of protein was used in each assay tube. In the case of the aromatic inhibitors, the test compound was simply evaporated to dryness from solution in the incubation tube. […] The aliphatic inhibitors, which appeared to be less soluble in water, were added as part of the substrate liposomes.

[2] = tested on: H-460 lung large cell carcinoma cells; experiment: Tumor cell growth in vitro (sulforhodamine B), H-460; type: cell-based, human; settings: rounded off to one digit, read-out: Inhibition of tumor cell growth in vitro, IC50
Experimental: (§1) Growth of cell lines. Comparisons of different inhibitors with regard to suppression of human cancer cell growth were made by the University of Michigan Cancer Center in vitro Drug Evaluation Core Laboratory. MCF-7 breast carcinoma cells, HT-29 colon adenocarcinoma cells, H-460 lung large cell carcinoma cells, and 9L brain gliosarcoma cells were grown in RPMI 1640 medium with 5% fetal bovine serum, 2 mM glutamine, 50 units/ml of penicillin, […] of streptomycin, and 0.1 mg/ml of neomycin. UMSCC-10A head and neck squamous carcinoma cells were grown in minimal essential medium with Earle salts and the same supplements. Medium components were from Sigma Chemical Co. Cells were plated in 96-well microtiter plates (1000 cells/well for H-460 and 9L cells, and 2000 cells/well for the other lines), and the test compounds were added 1 day later. The stock inhibitor solutions, 2 mM in 2 mM BSA, were diluted with different amounts of additional 2 mM BSA, then each solution was diluted 500-fold with growth medium to obtain the final concentrations indicated in the Figures and Tables.
(§2) Five days after plating the H-460 and 9L cells, or 6 days for the other lines, cell growth was evaluated by staining the adhering cells with sulforhodamine B and measuring the absorbance at 520 nm (Skehan, P. et al., “New Colorimetric Cytotoxicity Assay for Anticancer-Drug Screening,” J. Natl. Cancer Inst., 82:1107-1112 (1990)). The absorbance of the treated cultures is reported as percent of that of control cultures, to provide an estimate of the fraction of the cells that survived, or of inhibition of growth rate.

[3] = tested on: 9L brain gliosarcoma cells; experiment: Tumor cell growth in vitro (sulforhodamine B), 9L; type: cell-based; settings: 9L; rounded off to one digit; read-out: Inhibition of tumor cell growth in vitro, IC50
Experimental: as §1, §2

[4] = tested on: MCF-7 breast carcinoma cells; experiment: Tumor cell growth in vitro (sulforhodamine B), MCF-7; type: cell-based, human; settings: rounded off to one digit, read-out: Inhibition of tumor cell growth in vitro, IC50
Experimental: as §1, §2

[5] = triplicate ± SD, samples partly isomer mixtures

SMILES	% Inhibition at 80 μM [1, 5]	also measured
CCCCCCCCCCCCCCCC(=O)NC(CN1CCOCC1)C(O)c1ccc(F)cc1 (mixture of isomers) [BML-113]	60 ± 4.7^a %	
CCCCCCCCCCCCCCCC(=O)NC(CN(CC)CC)C(O)c1ccccc1 (mixture of isomers) [BML-114]	31 ± 2.9^a %	activity against GlcCer synthase, in words [1]: little or no activity
CCCCCCCCCCCCCCCC(=O)NC(CN1CCCCCC1)C(O)c1ccccc1 (mixture of isomers) [BML-116]	28 ± 3.2^a %	
CCCCCCCCCC(=O)NC(CN1CCOCC1)C(O)c1ccc(F)cc1 (mixture of isomers) [BML-117]	35 ± 0.6^b %	
CCCCCCCCCCCCCCCC(=O)NC(CN1CCCCC1)C(O)c1ccc(F)cc1 (mixture of isomers) [BML-118]	62 ± 0.4^b %	IC50 [2]: 2 µM; IC50 [3]: 2 µM; Inhibition at 5 μM ([1]; 5 μM inhibitor, triplicate ± SD, samples partly isomer mixtures): 8.3 ± 1.4^f %; IC50 [4]: 2 µM
CCCCCCCCCCCCCCCC(=O)NC(CN1CCN(C)CC1)C(O)c1ccccc1 (mixture of isomers) [BML-120]	11 ± 3.0^c %	
CCCCCCCCCCCCCCCC(=O)NC(CN1CCCC(N(C)C)C1)C(O)c1ccccc1 (mixture of isomers) [BML-121]	11 ± 0.4^c %	
CCCCCCCCCCCCCCCC(=O)NC(CN(C)CCO)C(O)c1ccccc1 (mixture of isomers) [BML-122]	58 ± 1.6^d %	
CCCCCCCCCCCCCCCC(=O)NC(CN)C(O)c1ccccc1 (mixture of isomers) [BML-124]	−2 ± 1.6^d %	activity against GlcCer synthase, in words [1]: little or no activity
